In general, GI50 refers to the concentration at which growth is held to half of that of the control.

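Cultured in 96-well plates, cells were exposed to test compound for 48 hours across five concentrations. Here, GI50 denotes the concentration required for 50% inhibition of growth.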 The source made the active and inactive calls. No stated cut-off is given here; in the data, active = GI50 up to about 1.1 µM and inactive = higher.

This is an account of results in ChEMBL document CHEMBL1201862, “PubChem BioAssay data set” (2004).

Some test systems named below: BT-549; TK-10; OVCAR-3; SF-539; HOP-92; NCI-H522; MDA-MB-231; OVCAR-5; MCF7; SN12C; Malme-3M; RXF 393; COLO 205; SW-620; HOP-62; NCI/ADR-RES; PC-3; HT-29; NCI-H23; UO-31.
Common to all, as to experiment: DTP human tumour cell line panel, 48 h

Consider `CCN(C)c1nc(N(C)CC)c2nc(N(C)CC)nc(N(C)CC)c2n1`, for which the GI50 in the test on BT-549, in the test on TK-10, in the test on OVCAR-3, with SF-539, with HOP-92 and with NCI-H522 was > 100 µM (inactive) each time. In addition, the GI50 with MDA-MB-231, in the test with OVCAR-5, in the test on MCF7, in the test on SN12C, with Malme-3M and in the test on RXF 393 was > 100 µM (inactive) each time. The GI50 with COLO 205, in the test on SW-620, in the test on HOP-62, in the test on NCI/ADR-RES, with PC-3 and in the test with HT-29 was > 100 µM (inactive) in each case. In addition, the GI50 in the test on NCI-H23 and in the test with UO-31 was > 100 µM (inactive) in each case.
On to `Cc1cc(SCC(=O)c2ccccc2)nc2ccccc12`, for which the GI50 in the test on BT-549 is > 100 µM (inactive); with TK-10, > 100 µM (inactive); in the test with OVCAR-3 it was 41.2 µM (inactive); in the test on SF-539 it was > 100 µM (inactive); in the test with HOP-92, > 100 µM (inactive); in the test with NCI-H522, 53.7 µM (inactive). The GI50 in the test on MDA-MB-231 is > 100 µM (inactive); in the test on OVCAR-5, 72.9 µM (inactive); with MCF7 it was > 100 µM (inactive); in the test on SN12C, > 100 µM (inactive); in the test with Malme-3M it was > 100 µM (inactive); in the test with RXF 393, > 100 µM (inactive). Also, the GI50 in the test on COLO 205 was > 100 µM (inactive); with SW-620, > 100 µM (inactive); in the test on HOP-62 it was 88.9 µM (inactive); with NCI/ADR-RES, > 100 µM (inactive); with PC-3, > 100 µM (inactive); in the test with HT-29, 40.1 µM (inactive). For the same molecule, the GI50 in the test on NCI-H23 is > 100 µM (inactive); with UO-31 it was 73.5 µM (inactive).
In the case of `COC(=O)/C(=C(\C)NC(C)=O)c1c(C(=O)OC)[nH]c2ccccc12`, the GI50 in the test on BT-549 is > 100 µM (inactive); in the test on TK-10, > 100 µM (inactive); in the test on OVCAR-3 it was > 100 µM (inactive); in the test on SF-539 it was > 100 µM (inactive); in the test on HOP-92 it was > 100 µM (inactive); in the test with NCI-H522, 95.3 µM (inactive). Also, the GI50 in the test with MDA-MB-231, in the test on OVCAR-5, with MCF7, in the test on SN12C, in the test with Malme-3M and in the test on RXF 393 was > 100 µM (inactive) each time. In addition, the GI50 in the test with COLO 205, with SW-620, in the test on HOP-62, with NCI/ADR-RES, with PC-3 and in the test with HT-29 was > 100 µM (inactive) each time. The GI50 in the test on NCI-H23 and with UO-31 was > 100 µM (inactive) in each case.
With `O=C(NNC(=S)Nc1ccc(Cl)cc1)c1cc(-c2ccccc2)nc2ccccc12`, the GI50 with BT-549 is 4.6 µM (inactive); with TK-10 it was 7.19 µM (inactive); in the test with OVCAR-3, 2.66 µM (inactive); in the test with SF-539, 3.69 µM (inactive); in the test with HOP-92, 3.59 µM (inactive); in the test with NCI-H522, 5.64 µM (inactive). Moreover, the GI50 with MDA-MB-231 was 12.2 µM (inactive); with OVCAR-5 it was 10.3 µM (inactive); with MCF7, 4.01 µM (inactive); with SN12C, 4.97 µM (inactive); in the test with Malme-3M it was 4.6 µM (inactive); in the test on RXF 393 it was 7.93 µM (inactive). Moreover, the GI50 with COLO 205 is 4.99 µM (inactive); in the test with SW-620, 4.91 µM (inactive); in the test on HOP-62 it was 6.12 µM (inactive); with NCI/ADR-RES it was 5.27 µM (inactive); with PC-3 it was 3.42 µM (inactive); in the test with HT-29, 8.73 µM (inactive). The GI50 in the test on NCI-H23 was 4.94 µM (inactive); in the test with UO-31, 5.28 µM (inactive).
As for `COc1ccc(-c2sc(Br)c3c2C(=O)C2OC(=O)NC32)cc1OC` (stereo not given), the GI50 in the test with BT-549, with TK-10, with OVCAR-3, in the test on SF-539, with HOP-92 and in the test with NCI-H522 was > 100 µM (inactive) each time. The GI50 in the test on MDA-MB-231, in the test with OVCAR-5, in the test on MCF7, in the test on SN12C, with Malme-3M and with RXF 393 was > 100 µM (inactive) each time. The GI50 in the test on COLO 205, in the test with SW-620, in the test on HOP-62, in the test with NCI/ADR-RES, in the test with PC-3 and in the test with HT-29 was > 100 µM (inactive) each time. In addition, the GI50 in the test on NCI-H23 and in the test on UO-31 was > 100 µM (inactive) throughout.
Consider `O=C1CC(c2ccccc2Cl)C2(C(=O)NC(=S)NC2=O)C(c2ccccc2Cl)C1` (stereo not given), for which the GI50 in the test with BT-549 is 30.3 µM (inactive); with TK-10 it was 0.0302 µM (active); in the test on OVCAR-3, 26.5 µM (inactive); in the test with SF-539 it was 58.7 µM (inactive); in the test on HOP-92 it was 0.284 µM (active); in the test on NCI-H522 it was 34.1 µM (inactive). Besides, the GI50 in the test on MDA-MB-231 was 27.2 µM (inactive); in the test with OVCAR-5 it was 42.1 µM (inactive); in the test with MCF7, 18.3 µM (inactive); in the test with SN12C, 25.9 µM (inactive); in the test with Malme-3M it was 1.56 µM (inactive); in the test with RXF 393, 16.9 µM (inactive). Also, the GI50 with COLO 205 was 31.3 µM (inactive); in the test with SW-620, 35.7 µM (inactive); in the test with HOP-62 it was 34.2 µM (inactive); with NCI/ADR-RES, 68.5 µM (inactive); in the test with PC-3 it was 23.6 µM (inactive); with HT-29 it was 74 µM (inactive). Besides, the GI50 in the test on NCI-H23 was 16.7 µM (inactive); in the test on UO-31 it was 46.5 µM (inactive).
Turning to `O=C1c2ccccc2-c2nnc3c(c21)Cc1ccccc1C3`, the GI50 in the test with BT-549, in the test with TK-10, with OVCAR-3, with SF-539, in the test with HOP-92 and in the test on NCI-H522 was > 10 µM (inactive) each time. In addition, the GI50 in the test on MDA-MB-231, with OVCAR-5, in the test with MCF7, with SN12C, in the test on Malme-3M and in the test with RXF 393 was > 10 µM (inactive) each time. In addition, the GI50 with COLO 205 is > 10 µM (inactive); in the test on SW-620, > 10 µM (inactive); in the test with HOP-62, > 10 µM (inactive); in the test on NCI/ADR-RES, > 10 µM (inactive); in the test on PC-3, 9.53 µM (inactive); in the test on HT-29, > 10 µM (inactive). The GI50 with NCI-H23 and in the test with UO-31 was > 10 µM (inactive) each time.
